According to patent publication US20080207617A1, “Quinoline Derivatives and Quinazoline Derivatives Inhibiting Autophosphrylation of Flt3 and Medicinal Compositions Containing the Same” (KIRIN BEER KABUSHIKI KAISHA, priority 2002, published 2008):
Where a name gives a salt, the structure may show the parent alone.

Assays:
[1] = system: MOLM13; experiment: Cell growth inhibitory activities on cultured human leukemia cells MOLM-13 (WST-1); type: cell-based; conditions: Homo sapiens, MOLM-13, 72 h, 3 days culture
Method: Pharmacological Test Example 4
Cell Growth Inhibitory Activities on Cultured Human Leukemia Cells
(§1) Human leukemia cells MOLM13 (subdivided from Hayashibara Biochemical Laboratories, Inc.) were seeded in an amount of 3×10^3 using a DMEM medium containing 10% fetal calf serum (purchased from GIBCO) in a 96-well flat bottom plate. A solution of a test compound in dimethyl sulfoxide was added to each well and was cultured in a 5% carbon dioxide incubator for 3 days. Three days after the initiation of the culture, 10 μl of a WST-1 solution in Cell Counting Kit (purchased from Wako Pure Chemical Industries, Ltd.) was added to each well for a color reaction. After proper color development, the absorbance was measured with a microplate reader under conditions of measurement wavelength 450 nm and reference wavelength 650 nm. The growth ratio for each well was determined by presuming the absorbance without the addition of the medicament to be 100% growth ratio and the absorbance of the well without seeding of the cells to be 0% growth ratio. The concentration of the test compound was varied on several levels, the cell growth ratio for each case was determined, and the concentration of the test compound necessary for inhibiting 50% of cell growth ratio (IC50) was calculated.

[2] = system: MV4-11; experiment: Cell growth inhibitory test MV4-11 (WST-1); type: cell-based, human; conditions: Homo sapiens, MV4-11, 72 h, MV4-11 cells, 3 days culture
Method: Pharmacological Test Example 2
Cell Growth Inhibitory Test
MV4-11 (ATCC number: CRL-9591) as human leukemia cells was seeded in an amount of 3×10^3 using a DMEM medium containing 10% fetal calf serum (purchased from GIBCO) in a 96-well flat bottom plate.
as §1, with “A” for “Human leukemia cells MOLM13 (subdivided from Hayashibara Biochemical Laboratories, Inc.) were seeded in an amount of 3×10^3 using a DMEM medium containing 10% fetal calf serum (purchased from GIBCO) in a 96-well flat bottom plate. A”

Row | IC50 [1] | IC50 [2] | Structure (SMILES)
1 | 770 nM | 395 nM | COc1cc2nccc(Oc3ccc(NC(=O)NCCC(C)(C)C)c(C)c3)c2cc1OC [Compound 2, 1-[4-(6,7-Dimethoxy-quinolin-4-yloxy)-2-methyl-phenyl]-3-(3,3-dimethyl-butyl)-urea]
2 | 653 nM | 889 nM | COc1cc(Oc2ccnc3cc(OC)c(OC)cc23)ccc1NC(=O)NCCC(C)(C)C [Compound 4, 1-[4-(6,7-Dimethoxy-quinolin-4-yloxy)-2-methoxy-phenyl]-3-(3,3-dimethyl-butyl)-urea]
3 | 593 nM | 558 nM | COc1cc2nccc(Oc3ccc(NC(=O)NCCC(C)(C)C)c(C)c3C)c2cc1OC [Compound 7, 1-[4-(6,7-Dimethoxy-quinolin-4-yloxy)-2,3-dimethyl-phenyl]-3-(3,3-dimethyl-butyl)-urea]
4 | 24 nM | 8 nM | COc1cc2nccc(Oc3ccc(NC(=O)NCCC(C)(C)C)c(F)c3)c2cc1OC [Compound 9, 1-[4-(6,7-Dimethoxy-quinolin-4-yloxy)-2-fluoro-phenyl]-3-(3,3-dimethyl-butyl)-urea hydrochloride]
5 | 416 nM | 300 nM | COc1cc2nccc(Oc3ccc(NC(=O)NCCC(C)(C)C)c(Cl)c3)c2cc1OC [Compound 11, 1-[2-Chloro-4-(6,7-dimethoxy-quinolin-4-yloxy)-phenyl]-3-(3,3-dimethyl-butyl)-urea hydrochloride]
6 | 10 nM | 6 nM | CCCCNC(=O)Nc1ccc(Oc2ccnc3cc(OC)c(OC)cc23)cc1 [Compound 19, 1-Butyl 3-[4-(6,7-dimethoxy-quinolin-4-yloxy)-phenyl]-urea]
7 | 39 nM | 31 nM | COc1cc2nccc(Oc3ccc(NC(=O)NC(C)C)cc3)c2cc1OC [Compound 20, 1-[4-(6,7-Dimethoxy-quinolin-4-yloxy)-phenyl]-3-isopropyl-urea]
8 | 22 nM | 31 nM | CCCNC(=O)Nc1ccc(Oc2ccnc3cc(OC)c(OC)cc23)cc1 [Compound 21, 1-[4-(6,7-Dimethoxy-quinolin-4-yloxy)-phenyl]-3-propyl-urea]
9 | 7 nM | 4 nM | CCCCCCNC(=O)Nc1ccc(Oc2ccnc3cc(OC)c(OC)cc23)cc1 [Compound 22, 1-[4-(6,7-Dimethoxy-quinolin-4-yloxy)-phenyl]-3-hexyl-urea]
10 | 4 nM | 2 nM | CCCCCNC(=O)Nc1ccc(Oc2ccnc3cc(OC)c(OC)cc23)cc1 [Compound 23, 1-[4-(6,7-Dimethoxy-quinolin-4-yloxy)-phenyl]-3-pentyl-urea]
11 | 24 nM | 18 nM | COCCCNC(=O)Nc1ccc(Oc2ccnc3cc(OC)c(OC)cc23)cc1 [Compound 24, 1-[4-(6,7-Dimethoxy-quinolin-4-yloxy)-phenyl]-3-(3-methoxy-propyl)-urea]
12 | 258 nM | 66 nM | COc1cc2nccc(Oc3ccc(NC(=O)NCCN(C)C)cc3)c2cc1OC [Compound 25, 1-[4-(6,7-Dimethoxy-quinolin-4-yloxy)-phenyl]-3-(2-dimethylamino-ethyl)-urea]
13 | 45 nM | 32 nM | CNC(=O)Nc1ccc(Oc2ccnc3cc(OC)c(OC)cc23)cc1 [Compound 27, 1-[4-(6,7-Dimethoxy-quinolin-4-yloxy)-phenyl]-3-methyl-urea]
14 | 26 nM | 19 nM | CCNC(=O)Nc1ccc(Oc2ccnc3cc(OC)c(OC)cc23)cc1 [Compound 28, 1-[4-(6,7-Dimethoxy-quinolin-4-yloxy)-phenyl]-3-ethyl-urea]
15 | 3 nM | 1 nM | COc1cc2nccc(Oc3ccc(NC(=O)NCCC(C)C)cc3)c2cc1OC [Compound 29, 1-[4-(6,7-Dimethoxy-quinolin-4-yloxy)-phenyl]-3-(3-methyl-butyl)-urea]
16 | 8 nM | 4 nM | COc1cc2nccc(Oc3ccc(NC(=O)NCC4CCCCC4)cc3)c2cc1OC [Compound 30, 1-Cyclohexylmethyl-3-[4-(6,7-dimethoxy-quinolin-4-yloxy)-phenyl]-urea]

Row | IC50 [1] | IC50 [2] | Structure (SMILES)
17 | 2 nM | 2 nM | COc1cc2nccc(Oc3ccc(NC(=O)NCCC4CCCCC4)cc3)c2cc1OC [Compound 31, 1-(2-Cyclohexyl-ethyl)-3-[4-(6,7-dimethoxy-quinolin-4-yloxy)-phenyl]-urea]
18 | 314 nM | 201 nM | COc1cc2nccc(Oc3ccc(NC(=O)NCC(C)(C)C)cc3)c2cc1OC [Compound 32, 1-[4-(6,7-Dimethoxy-quinolin-4-yloxy)-phenyl]-3-(2,2-dimethyl-propyl)-urea]
19 | 4 nM | 8 nM | COc1cc2nccc(Oc3ccc(NC(=O)NCCCC4CCCCC4)cc3)c2cc1OC [Compound 33, 1-(3-Cyclohexyl-propyl)-3-[4-(6,7-dimethoxy-quinolin-4-yloxy)-phenyl]-urea]
20 | 2 nM | < 1 nM | COc1cc2nccc(Oc3ccc(NC(=O)NCCCC(C)C)cc3)c2cc1OC [Compound 34, 1-[4-(6,7-Dimethoxy-quinolin-4-yloxy)-phenyl]-3-(4-methyl-pentyl)-urea]
21 | 3 nM | < 1 nM | COc1cc2nccc(Oc3ccc(NC(=O)NCCCC(C)(C)C)cc3)c2cc1OC [Compound 35, 1-[4-(6,7-Dimethoxy-quinolin-4-yloxy)-phenyl]-3-(4,4-dimethyl-pentyl)-urea]
22 | 2 nM | < 1 nM | COc1cc2ncnc(Oc3ccc(NC(=O)NCCC(C)(C)C)cc3)c2cc1OC [Compound 36, 1-[4-(6,7-Dimethoxy-quinazolin-4-yloxy)-phenyl]-3-(3,3-dimethyl-butyl)-urea]
23 | 38 nM | 47 nM | COc1cc2nccc(Oc3ccc(NC(=O)NCCC(C)(C)C)c([N+](=O)[O-])c3)c2cc1OC [Compound 37, 1-[2-Nitro-4-(6,7-dimethoxy-quinolin-4-yloxy)-phenyl]-3-(3,3-dimethyl-butyl)-urea]
24 | 3 nM | < 1 nM | COc1cc2nccc(Oc3ccc(NC(=O)NCCC(C)(C)CO)cc3)c2cc1OC [Compound 39, 1-[4-(6,7-Dimethoxy-quinolin-4-yloxy)-phenyl]-3-(4-hydroxy-3,3-dimethyl-butyl)-urea]
25 | 273 nM | 235 nM | COc1cc2c(Oc3ccc(NC(=O)NCCC(C)(C)C)c(Cl)c3)ccnc2cc1OCCN1CCCCC1 [Compound 42, 1-{2-Chloro-4-[6-methoxy-7-(2-piperidin-1-yl-ethoxy)-quinolin-4-yloxy]-phenyl}-3-(3,3-dimethyl-butyl)-urea]
26 |  | 217 nM | COc1cc2c(Oc3ccc(NC(=O)NCCC(C)(C)C)c(Cl)c3)ccnc2cc1OCCN1CCCC1 [Compound 48, 1-{2-Chloro-4-[6-methoxy-7-(2-pyrrolidin-1-yl-ethoxy)-quinolin-4-yloxy]-phenyl}-3-(3,3-dimethyl-butyl)-urea]
27 | 224 nM | 207 nM | COc1cc2c(Oc3ccc(NC(=O)NCCC(C)(C)C)c(Cl)c3)ccnc2cc1OCCC1CCNCC1 [Compound 49, 1-{2-Chloro-4-[6-methoxy-7-(2-piperidin-4-yl-ethoxy)-quinolin-4-yloxy]-phenyl}-3-(3,3-dimethyl-butyl)-urea]
28 | 243 nM | 224 nM | COc1cc2c(Oc3ccc(NC(=O)NCCC(C)(C)C)c(Cl)c3)ccnc2cc1OCCC1CCCCN1 (stereo not shown) [Compound 50, 1-{2-Chloro-4-[6-methoxy-7-(2-piperidin-2-yl-ethoxy)-quinolin-4-yloxy]-phenyl}-3-(3,3-dimethyl-butyl)-urea]
29 | 216 nM | 211 nM | COc1cc2c(Oc3ccc(NC(=O)NCCC(C)(C)C)c(Cl)c3)ccnc2cc1OCCN1CCC(C)CC1 [Compound 51, 1-(2-Chloro-4-{6-methoxy-7-[2-(4-methyl-piperidin-1-yl)-ethoxy]-quinolin-4-yloxy}-phenyl)-3-(3,3-dimethyl-butyl)-urea]
30 | 188 nM | 184 nM | COc1cc2c(Oc3ccc(NC(=O)NCCC(C)(C)C)c(Cl)c3)ccnc2cc1OCCCN1CCC(C)CC1 [Compound 52, 1-(2-Chloro-4-{6-methoxy-7-[3-(4-methyl-piperidin-1-yl)-propoxy]-quinolin-4-yloxy}-phenyl)-3-(3,3-dimethyl-butyl)-urea]
31 | 4 nM | 2 nM | COc1cc2c(Oc3ccc(NC(=O)NCCC4CCCC4)cc3F)ccnc2cc1OCCN1CCCCC1 [Compound 59, 1-(2-Cyclopentyl-ethyl)-3-{3-fluoro-4-[6-methoxy-7-(2-piperidin-1-yl-ethoxy)-quinolin-4-yloxy]-phenyl}-urea]
